Test results as given in PMC10480042 (ACS applied materials & interfaces, 2023).
No end group written: not given here.

Tests used:
[1] = system: SH-SY5Y cells
[2] = system: zebrafish embryos; conditions: in vivo
[3] = biological target: T1, Aβ42 (Homo sapiens, UniProt P05067); experiment: biochemical; format: binding
[4] = system: zebrafish embryos; conditions: in vivo; remark: listed apart in the source
[5] = biological target: T1, Aβ42; format: biochemical
[6] = biological target: T1, Aβ42; experiment: CD spectroscopy; format: biochemical; conditions: co-incubation with Spike1058, dose-dependent, 48 h, 37 °C
[7] = biological target: T1, Aβ42; experiment: SEC-HPLC-UV of Aβ42 and Spike1058 co-aggregation; format: biochemical; conditions: molar ratio 1:2, 4 h, 37 °C, UV 220 nm, PBS pH 5.6

T1 sequence (P05067 672-713): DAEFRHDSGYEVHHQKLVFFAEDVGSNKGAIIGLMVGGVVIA

HGVVFLHVTYV [Spike1058]
cell mortality [1]: elevated in a dose-dependent manner
cell mortality vs Aβ control [1]: less deleterious than Aβ control
number of viable SH-SY5Y cells at increasing Spike:Aβ molar ratios [1]: gradual decline in number
impact on cell viability, less than Aβ control ([1]; 25 µM): 11%
viable SH-SY5Y cells compared with Aβ control group ([1]; 24 h): 22%
generation of biotic ROS, surpassing levels with Aβ or Spike1058 alone [2]: significant increase
Kd [3]: 82.6 nM
hatching interference and mortality compared to control group [4]: pronounced hatching interference and mortality
hatching rate in comparison to Aβ or Spike1058 alone [4]: significantly decreased
influence on hatching and mortality rate relative to Aβ [4]: more substantial influence than Aβ
survival rate in comparison to Aβ or Spike1058 alone [4]: significantly decreased
increase of Aβ's β-sheet content by co-incubation [5]: 7-33%
increase of β-sheet content of Aβ by co-incubation (CD) [6]: 16-35%
decrease of amount of Spike1058 in mixed Aβ-Spike1058 sample [7]: 39.54%
